Article PMC5845869 (Frontiers in Microbiology, 2018)
In brackets after ≈: the same amount, converted by molar mass. Like-named read-outs stand apart in the source and are kept apart here. Ends that are not written are not given here. Peptide text beside a SMILES is read from it.

Key:
[1] = test system: Candida albicans ATCC 10231
Description: (§1) Susceptibility tests were performed in low ionic strength broth medium (LCM: 0.5% glucose, 0.25% yeast extract, 0.0125% peptone (w/v)) and in RPMI 1640 medium (Sigma-Aldrich, St Louis, MO, USA) supplemented with 0.03% (w/v) L-glutamine and buffered to pH 7.0 with 0.165 M 4-morpholinopropanesulfonic acid (Sigma-Aldrich, St Louis, MO, USA).
(§2) Antifungal susceptibility tests were performed with nNFAP2, rNFAP2, and sNFAP2 and its peptide fragments in LCM medium against yeast isolates (10^5 cells ml^−1) according to the broth microdilution method described by Tóth et al. ([2016]). Final drug concentration ranged from 25 to 0.098 μg ml^−1 for rNFAP2 and sNFAP2, and from 100 to 6.25 μg ml^−1 for the synthetic peptide fragments. The rNFAP2 was tested against nine yeast isolates, while the sNFAP2 and the synthetic peptide fragments against C. albicans ATCC 10231, C. krusei CBS 573, C. parapsilosis CBS 604, and S. cerevisiae SZMC 0644.
(§3) LCM plates were incubated at 30°C, while RPMI 1640 plates at 35°C for 48 h without shaking, then the absorbance (OD620) was measured with a microtiter plate reader (SPECTROstar Nano, BMG Labtech, Ortenberg, Germany) after resuspension of the cultures with pipette. The absorbance of the untreated control cultures was referred to 100% growth in each case.
(§4) All susceptibility tests were repeated at least two times in three replicates.

[2] = test system: Candida krusei CBS 573
Description: as §1, §2, §3, §4

[3] = test system: Candida parapsilosis CBS 604
Description: as §1, §2, §3, §4

[4] = test system: Saccharomyces cerevisiae SZMC 0644
Description: as §1, §2, §3, §4

[5] = test system: C. albicans ATCC 10231 cells; experiment: Propidium iodide (PI) staining, plasma membrane disruption; format: cell-based, Candida albicans; conditions: treatment at MIC in LCM, 10 min, 30°C; 5 μg ml^−1 PI; fluorescence microscopy
Description: After the treatment, cells were washed with LCM, and then stained with 5 μg ml^−1 PI for 10 min at room temperature in the dark, and then they were washed again with LCM and resuspended in final volume of 100 μl LCM. Cells treated with 70% (v/v) ethanol for 10 min at 4°C were used as positive staining control. Untreated cells were used as negative staining control.
Yeast cells were visualized by light and fluorescence microscopy (Carl Zeiss Axiolab LR 66238C; Zeiss, Oberkochen, Germany) and photographed with a microscope camera (Zeiss AxioCam ERc 5s; Zeiss, Oberkochen, Germany).

[6] = test system: Candida glabrata CBS 138; experiment: MIC, broth microdilution in LCM; format: cell-based; conditions: 10^5 cells ml^−1, 48 h, 30°C, MIC = growth ≤ 5% (OD620)
Description: as §1, §2, §3, §4

[7] = test system: Candida guilliermondii CBS 566; experiment: MIC, broth microdilution in LCM; format: cell-based; conditions: 10^5 cells ml^−1, 48 h, 30°C, MIC = growth ≤ 5% (OD620)
Description: as §1, §2, §3, §4

[8] = test system: Candida lusitaniae CBS 6936; experiment: MIC, broth microdilution in LCM; format: cell-based; conditions: 10^5 cells ml^−1, 48 h, 30°C, MIC = growth ≤ 5% (OD620)
Description: as §1, §2, §3, §4

[9] = test system: Candida tropicalis CBS 94; experiment: MIC, broth microdilution in LCM; format: cell-based; conditions: 10^5 cells ml^−1, 48 h, 30°C, MIC = growth ≤ 5% (OD620)
Description: as §1, §2, §3, §4

[10] = test system: Schizosaccharomyces pombe SZMC 0142; experiment: MIC, broth microdilution in LCM; format: cell-based; conditions: 10^5 cells ml^−1, 48 h, 30°C, MIC = growth ≤ 5% (OD620)
Description: as §1, §2, §3, §4

[11] = Thermal unfolding followed by ECD spectroscopy; format: physicochemical; conditions: for thermal denaturation reversibility: ECD at 95°C, then re-measured after cooling, 5 min at 25°C; for Tm (melting temperature of the native protein structure): ECD at 228 nm, 25 to 95°C at 1°C min^−1, approx. 0.1 mg ml^−1 in H2O, inflection of sigmoidal fit; for native fold remains intact up to: thermal unfolding followed by ECD
Description: ECD spectroscopic measurements were performed using a Jasco-J815 spectropolarimeter (JASCO Corporation, Tokyo, Japan), in the far-UV range (185–260 nm). Protein samples were dissolved in pure H2O in approximately 0.1 mg ml^−1 concentration and measured in a 0.1 cm pathlength quartz cuvette. First, ECD spectra of samples were recorded at 25°C with a scan speed of […]. […] The system was allowed to equilibrate for 1 min before measurements were taken at each temperature point.
The obtained melting curves were fitted with an inverse sigmoidal function of which inflection point designated the melting temperature (Tm) of the native protein structure.
ECD spectra were also recorded at 95°C, the final temperature of the thermal unfolding experiments, then samples were allowed to cool and measured again after 5 min of equilibration at 25°C. The reported spectra are accumulations of 10 scans, from which the similarly recorded, corresponding solvent spectrum was subtracted. Data are given as molar ellipticities. Accurate protein sample concentrations for the corrections of ECD spectra were determined using analytical RP-HPLC.

[12] = LCM, 10^5 cells ml^−1, 48 h, 30°C, MIC = growth ≤ 5% (OD620)

Row | Molecule | MIC ([1]; ATCC 10231, 48 h) [µg/mL] | MIC ([2]; CBS 573, 48 h) [µg/mL] | MIC ([3]; CBS 604, 48 h) [µg/mL] | MIC ([4]; SZMC 0644, 48 h) [µg/mL] | Plasma membrane disruption (PI staining) [5] | further results
1 | CC[C@H](C)[C@H](NC(=O)[C@H](CS)NC(=O)[C@H](CC(N)=O)NC(=O)[C@H](CC(C)C)NC(=O)[C@H](CCC(N)=O)NC(=O)CNC(=O)CNC(=O)[C@H](CCC(N)=O)NC(=O)[C@H](Cc1c[nH]c2ccccc12)NC(=O)[C@H](CCC(=O)O)NC(=O)[C@H](CS)NC(=O)[C@H](CCCCN)NC(=O)CN)C(=O)N[C@@H](C)C(=O)N[C@H](C(=O)O)[C@@H](C)O [Fr-3] (H-GKCEWQGGQLNCIAT-OH; N-terminus and C-terminus assumed) | >100 | >100 | >100 | >100 | did not disrupt the plasma membrane | 
2 | KYHSGPSDKSKVIS [Fr-5] | >100 | >100 | >100 | >100 |  | 
3 | CC[C@H](C)[C@H](N)C(=O)N[C@@H](C)C(=O)NCC(=O)N[C@@H](C)C(=O)N[C@@H](Cc1c[nH]cn1)C(=O)N[C@@H](CCCCN)C(=O)N[C@@H](CS)C(=O)N[C@@H](CCCCN)C(=O)N1CCC[C@H]1C(=O)N[C@@H](CS)C(=O)N[C@@H](Cc1ccc(O)cc1)C(=O)NCC(=O)N[C@@H](Cc1ccc(O)cc1)C(=O)N[C@@H](CCCCN)C(=O)N[C@H](C(=O)N[C@@H](CC(N)=O)C(=O)N[C@@H](CO)C(=O)N[C@@H](CS)C(=O)N[C@@H](CS)C(=O)N[C@@H](CC(N)=O)C(=O)N[C@@H](CO)C(=O)N1CCC[C@H]1C(=O)N[C@@H](CC(N)=O)C(=O)O)[C@@H](C)O [Sh-Fr-2] (H-IAGAHKCKPCYGYKTNSCCNSPN-OH; N-terminus and C-terminus assumed) |  |  |  |  | prompt plasma membrane disruption effect | 
4 | IATSPYYACNCPNNCKHKKGSGCKYHSGPSDKSKVISGKCEWQGGQLNCIAT (disulfide (positions not given here)) [nNFAP2] |  |  |  |  |  | MIC [6]: 1.56 µg/mL; MIC [7]: 1.56 µg/mL; MIC [8]: 3.125 µg/mL; MIC [9]: 1.56 µg/mL; MIC [10]: 1.56 µg/mL; MIC [1, 12]: 6.25 µg/mL; MIC [2, 12]: 12.5 µg/mL; MIC [3, 12]: 1.56 µg/mL; MIC [4, 12]: 3.125 µg/mL; thermal denaturation reversibility [11]: reversible; Tm (melting temperature of the native protein structure) [11]: 72.92 °C; native fold remains intact up to [11]: approximately 70 °C
5 | NCCCC[C@H](NC(=O)CNC(=O)[C@H](CCCCN)NC(=O)[C@H](CC(N)=O)NC(=O)[C@H](CS)NC(=O)[C@@H](N)CS)C(=O)N[C@@H](CC(N)=O)C(=O)N[C@@H](CCCCN)C(=O)NCC(=O)N[C@@H](CO)C(=O)N[C@@H](Cc1c[nH]cn1)C(=O)O [Sh-Fr-4] (H-CCNKGKNKGSH-OH; N-terminus and C-terminus assumed) | 50 (≈ 42.5 µM) | 50 (≈ 42.5 µM) | 50 (≈ 42.5 µM) | 50 (≈ 42.5 µM) | prompt plasma membrane disruption effect | 
6 | IATSPYYACNCPNNCKHKKGSGCKYHSGPSDKSKVISGKCEWQGGQLNCIAT (disulfide (positions not given here)) [sNFAP2] |  |  |  |  |  | MIC [1, 12]: 6.25 µg/mL; MIC [2, 12]: 12.5 µg/mL; MIC [3, 12]: 1.56 µg/mL; MIC [4, 12]: 3.125 µg/mL; thermal denaturation reversibility [11]: reversible; Tm (melting temperature of the native protein structure) [11]: 74.94 °C; native fold remains intact up to [11]: approximately 70 °C
7 | CC[C@H](C)[C@H](N)C(=O)N[C@@H](C)C(=O)N[C@H](C(=O)N[C@@H](CO)C(=O)N1CCC[C@H]1C(=O)N[C@@H](Cc1ccc(O)cc1)C(=O)N[C@@H](Cc1ccc(O)cc1)C(=O)N[C@@H](C)C(=O)N[C@@H](CS)C(=O)N[C@@H](CC(N)=O)C(=O)N[C@@H](CS)C(=O)N1CCC[C@H]1C(=O)O)[C@@H](C)O [Fr-6] (H-IATSPYYACNCP-OH; N-terminus and C-terminus assumed) | >100 | >100 | >100 | >100 |  | 
8 | CC[C@H](C)[C@H](N)C(=O)N[C@@H](C)C(=O)N[C@H](C(=O)N[C@@H](CO)C(=O)N1CCC[C@H]1C(=O)N[C@@H](Cc1ccc(O)cc1)C(=O)N[C@@H](Cc1ccc(O)cc1)C(=O)N[C@@H](C)C(=O)N[C@@H](CS)C(=O)N[C@@H](CC(N)=O)C(=O)N[C@@H](CS)C(=O)N1CCC[C@H]1C(=O)N[C@@H](CC(N)=O)C(=O)N[C@@H](CC(N)=O)C(=O)N[C@@H](CS)C(=O)N[C@@H](CCCCN)C(=O)N[C@@H](Cc1c[nH]cn1)C(=O)N[C@@H](CCCCN)C(=O)N[C@@H](CCCCN)C(=O)NCC(=O)N[C@@H](CO)C(=O)NCC(=O)N[C@@H](CS)C(=O)O)[C@@H](C)O [Fr-2] (H-IATSPYYACNCPNNCKHKKGSGC-OH; N-terminus and C-terminus assumed) |  |  |  |  | prompt plasma membrane disruption effect | 
9 | NCCCC[C@H](NC(=O)[C@H](CCCCN)NC(=O)[C@H](Cc1c[nH]cn1)NC(=O)[C@H](CCCCN)NC(=O)[C@H](CS)NC(=O)[C@H](CC(N)=O)NC(=O)[C@@H](N)CC(N)=O)C(=O)NCC(=O)N[C@@H](CO)C(=O)NCC(=O)N[C@@H](CS)C(=O)O [Fr-4] (H-NNCKHKKGSGC-OH; N-terminus and C-terminus assumed) | 50 (≈ 42.5 µM) | 50 (≈ 42.5 µM) | 50 (≈ 42.5 µM) | 50 (≈ 42.5 µM) | prompt plasma membrane disruption effect | 
10 | CC[C@H](C)[C@H](NC(=O)[C@H](CS)NC(=O)[C@H](CC(N)=O)NC(=O)[C@H](CC(C)C)NC(=O)[C@H](CCC(N)=O)NC(=O)CNC(=O)CNC(=O)[C@H](CCC(N)=O)NC(=O)[C@H](Cc1c[nH]c2ccccc12)NC(=O)[C@H](CCC(=O)O)NC(=O)[C@H](CS)NC(=O)[C@H](CCCCN)NC(=O)CNC(=O)[C@H](CO)NC(=O)[C@@H](NC(=O)[C@@H](NC(=O)[C@H](CCCCN)NC(=O)[C@H](CO)NC(=O)[C@H](CCCCN)NC(=O)[C@H](CC(=O)O)NC(=O)[C@H](CO)NC(=O)[C@@H]1CCCN1C(=O)CNC(=O)[C@H](CO)NC(=O)[C@H](Cc1c[nH]cn1)NC(=O)[C@H](Cc1ccc(O)cc1)NC(=O)[C@@H](N)CCCCN)C(C)C)[C@@H](C)CC)C(=O)N[C@@H](C)C(=O)N[C@H](C(=O)O)[C@@H](C)O [Fr-1] (H-KYHSGPSDKSKVISGKCEWQGGQLNCIAT-OH; N-terminus and C-terminus assumed) | >100 | 100 (≈ 32 µM) | >100 | 100 (≈ 32 µM) |  | 
